Assay results as given in ChEMBL document CHEMBL5729785, “Pyridazinones as PARP7 inhibtors” (2023).

Target: T1, Protein mono-ADP-ribosyltransferase TIPARP (Homo sapiens, UniProt Q7Z3E1)
T1 sequence (Q7Z3E1 whole entry): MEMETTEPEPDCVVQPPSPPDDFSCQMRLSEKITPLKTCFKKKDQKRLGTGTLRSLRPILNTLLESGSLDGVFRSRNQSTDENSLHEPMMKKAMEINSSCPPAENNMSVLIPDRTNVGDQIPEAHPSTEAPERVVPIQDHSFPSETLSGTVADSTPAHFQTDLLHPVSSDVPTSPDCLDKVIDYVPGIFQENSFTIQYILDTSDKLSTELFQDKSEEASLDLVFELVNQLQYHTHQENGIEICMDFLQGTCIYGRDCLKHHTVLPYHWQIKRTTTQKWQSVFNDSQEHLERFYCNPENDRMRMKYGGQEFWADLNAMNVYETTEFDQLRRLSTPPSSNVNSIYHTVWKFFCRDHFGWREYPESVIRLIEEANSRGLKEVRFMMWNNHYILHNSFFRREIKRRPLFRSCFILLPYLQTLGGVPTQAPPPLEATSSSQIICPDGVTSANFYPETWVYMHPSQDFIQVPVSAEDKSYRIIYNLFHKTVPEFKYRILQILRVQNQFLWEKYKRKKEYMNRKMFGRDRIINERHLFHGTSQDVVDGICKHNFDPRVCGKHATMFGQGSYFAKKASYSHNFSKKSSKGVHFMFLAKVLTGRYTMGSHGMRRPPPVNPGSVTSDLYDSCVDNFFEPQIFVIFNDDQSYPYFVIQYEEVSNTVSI
Test: Enzymatic Assay: Displacement of Probe A, a biotinylated probe binding to the TIPARP active site, was measured using a time-resolved fluorescence energy transfer (TR-FRET) assay. 20 nL of a dose response curve of each test compound was spotted in black 384-well polystyrene proxiplates (Perkin Elmer) using a Mosquito (TTP Labtech). Reactions were performed in a 8 μl volume by adding 6 μL of TIPARP and Probe A in assay buffer (20 mM HEPES pH=8, 100 mM NaCl, 0.1% bovine serum albumin, 2 mM DTT and 0.002% Tween20), incubating with test compound at 25° C. for 30 min, then adding 2 μL of ULight-anti 6×His and LANCE Eu-W1024 labeled streptavidin (Perkin Elmer). The final concentrations of TIPARP and Probe A were 6 nM and 2 nM, respectively. The final concentration of ULight-anti 6×His and LANCE Eu-W1024 labeled streptavidin were 4 nM and 0.25 nM, respectively. Reactions were incubated at 25° C. for an additional 30 min, then read on an Envision platereader equipped with a LANCE/DELFIA top mirror (Perkin Elmer) using excitation of 320 nm and emission of 615 nm and 665 nM with a […]. The ratio of the 665/615 nm emission were calculated for each well to determine the amount of complex of TIPARP and Probe Ain each well. […]

For C[C@@H](CO[C@@H]1CCN(C2CCN(c3ncc(Br)cn3)CC2)C1=O)Nc1cn[nH]c(=O)c1C(F)(F)F, the IC50 was under 100 nM.
